Assay results published in PubChem BioAssay AID1996.
Values after ≈ are worked out from the molar mass of the structure shown.

Settings: buffer; pH 7.4; 200.0 µM

| Compound | solubility kinetic |
| --- | --- |
| COc1ccc(OCC(O)CNC(=O)Nc2ccc(C(C)(C)C)cc2)cc1 (stereo not drawn) | < 0.4 µg/mL |
| Cc1cc(C)cc(NC(=O)C2CCCN2C(=O)NC2CCCCC2)c1 (stereo not drawn) | 0.7 µg/mL (≈ 2.04 µM) |
| CCn1c(CCC(=O)O)nc2cc(S(=O)(=O)N3CCOCC3)ccc21 | > 55.1 µg/mL |
| CCCn1c(=O)c(Br)cn(-c2ccccc2C)c1=O | 48.2 µg/mL (≈ 149 µM) |
| C/C=C/c1ccc(OCCCCN2CCC(C)CC2)c(OC)c1 | 33.9 µg/mL (≈ 107 µM) |
| O=C1CN(C(=O)c2ccc(Cl)c([N+](=O)[O-])c2)c2ccccc2N1 | > 49.8 µg/mL |
| O=C(CN1CCCC1)Nc1ccc([N+](=O)[O-])cc1Cl | 36.2 µg/mL (≈ 128 µM) |
| O=C(CN1CCOCC1)Nc1ccc2c(c1)CCC2 | > 39.1 µg/mL |
| Cc1csc(NC(=O)c2ccc(Cl)nc2)n1 | > 38.1 µg/mL |
| CCc1cccc(C)c1NC(=O)CN1C(=O)NC(CCc2ccccc2)C1=O (stereo not drawn) | 7.6 µg/mL (≈ 20 µM) |
| Cc1ccc(NC(=O)C2COc3ccccc3O2)cc1C (stereo not drawn) | 14.5 µg/mL (≈ 51.2 µM) |
| Cc1ccc(NC(=S)NC(=O)C2CCC2)cc1C | 3.3 µg/mL (≈ 12.6 µM) |
| Cc1ccc(NC(=O)c2ccc(CSc3ccccn3)cc2)c(O)c1 | 1 µg/mL (≈ 2.85 µM) |
| CCc1ccccc1Nc1ncnc2ccccc12.Cl | > 42.9 µg/mL |
| O=C(O)C1C2CCC(C2)C1C(=O)NCCc1ccccc1 (stereo not drawn) | 42.9 µg/mL (≈ 149 µM) |
| CC(=O)OCc1ccccc1Sc1ccccc1C(=O)NCc1ccccc1 | 21.1 µg/mL (≈ 53.9 µM) |
| O=C(COC(=O)CN1CCSC1=O)Nc1ccc(F)cc1Cl | > 52 µg/mL |
| O=C(Nc1ccc(S(=O)(=O)N2CCCCC2)cc1)c1ccc(Cl)nc1 | 7.6 µg/mL (≈ 20 µM) |
| Cc1cccc(C)c1OCc1cc(C(=O)NCC2CC2)no1 | 4.6 µg/mL (≈ 15.3 µM) |
| O=C(NS(=O)(=O)c1ccccc1)c1cccc(Br)c1 | > 51 µg/mL |

| Compound | solubility kinetic |
| --- | --- |
| CCN(C(=O)COC(=O)c1ccc(Cl)c(S(=O)(=O)N2CCCCC2)c1)C1CCS(=O)(=O)C1 (stereo not drawn) | 56.6 µg/mL (≈ 112 µM) |
| COc1ccc(C(C)(C)C)cc1NC(=O)COC(=O)C(C)C | 33.1 µg/mL (≈ 108 µM) |
| O=C(COC(=O)c1ccc([N+](=O)[O-])cc1)NCCC1=CCCCC1 | 3.1 µg/mL (≈ 9.33 µM) |
| Cc1ccccc1OCC(=O)OCC(=O)NCc1ccccc1Cl | 14.1 µg/mL (≈ 40.5 µM) |
| Cc1ccc(S(=O)(=O)N(OCc2ccccc2)C(C)C(=O)O)cc1 (stereo not drawn) | 52.1 µg/mL (≈ 149 µM) |
| COc1ccc2oc(=O)c(C(=O)Nc3ccccc3O)cc2c1 | 1 µg/mL (≈ 3.21 µM) |
| COc1ccc(NC(=O)c2cc(C)nc3ccccc23)cc1S(=O)(=O)N1CCOCC1 | 6.1 µg/mL (≈ 13.8 µM) |
| CCc1nc(Nc2cccc(OC)c2)c2oc3ccccc3c2n1.Cl | 0.5 µg/mL |
| CC(C)NC(=O)[C@@H]1CSC2c3ccccc3C(=O)N21 (stereo partly drawn) | > 41.5 µg/mL |
| O=C(c1ccc([N+](=O)[O-])o1)N1CCc2ccccc21 | 2.6 µg/mL (≈ 10.1 µM) |
| O=C(CC1SCCNC1=O)Nc1ccc(Cl)cc1 (stereo not drawn) | > 42.7 µg/mL |
| O=C(c1cc(S(=O)(=O)N2CCOCC2)ccc1Cl)N1CCCCC1CO (stereo not drawn) | > 60.4 µg/mL |
| CSc1ccccc1NC(=O)Nc1cccc2ccccc12 | < 0.3 µg/mL |
| CC(C(=O)O/N=C(\N)c1cccnc1)c1ccc([N+](=O)[O-])cc1 (stereo not drawn) | 41.2 µg/mL (≈ 131 µM) |
| O=C(CCc1ccncc1)N1CCCC(Nc2ccc(F)cc2)C1 (stereo not drawn) | 45.6 µg/mL (≈ 139 µM) |
| CCOc1ccc(N2C(=O)CC(C(C)c3ccccc3)C2=O)cc1 (stereo not drawn) | 5.7 µg/mL (≈ 17.6 µM) |
| O=C(O)[C@H](Cc1c[nH]c2ccccc12)Nc1ncccc1[N+](=O)[O-] | > 48.9 µg/mL |
| COc1ccc(Br)cc1CN(C)C(=O)C1CC(=O)N(C2CCCC2)C1 (stereo not drawn) | 54.2 µg/mL (≈ 132 µM) |
| O=C(O)c1ccc2c(c1)C(=O)N(c1cc([N+](=O)[O-])ccn1)C2=O | > 47 µg/mL |
| O=C1c2ccccc2NC(c2ccc(O)cc2)N1c1ccccc1 (stereo not drawn) | 9.5 µg/mL (≈ 30 µM) |

| Compound | solubility kinetic |
| --- | --- |
| Cc1cccc(C)c1NC(=O)C(=O)NCCc1c[nH]c2ccccc12 | 1.3 µg/mL (≈ 3.88 µM) |
| COc1cccc(CN(C)C(=O)CCC(=O)c2cc(Br)ccc2OC)c1 | 18.3 µg/mL (≈ 43.5 µM) |
| CCOC(=O)C1CCCN(c2c(NCCc3cccc(C)c3)c(=O)c2=O)C1 (stereo not drawn) | 18 µg/mL (≈ 48.6 µM) |
| CC(=O)Nc1ccc(Oc2ccccc2)cc1 | 33.6 µg/mL (≈ 148 µM) |
| CCCN(C(=O)CCc1ccc(OC)cc1)c1c(N)n(Cc2ccccc2)c(=O)[nH]c1=O | 8.9 µg/mL (≈ 20.4 µM) |
| Cc1cc(C)nc(/N=c2/ssnc2Cl)c1 | 1.8 µg/mL (≈ 6.98 µM) |
| CC(=O)Nc1ccc(NC(=O)CCOc2ccccc2C)cc1 | 21.1 µg/mL (≈ 67.5 µM) |
| O=C(NCC(=O)N1CCN(c2ncccn2)CC1)c1ccccc1F | > 51.5 µg/mL |
| Cc1cccc(N=C2C(=O)Nc3c(Cl)cccc32)c1 | 32.4 µg/mL (≈ 120 µM) |
| COc1ccccc1C(=O)NC(C)c1ccc(-n2ccnc2)cc1 (stereo not drawn) | > 48.2 µg/mL |
| Cc1nc(C(=O)NCC(=O)c2ccc(Cl)cc2)c(C(F)(F)F)o1 | 8.4 µg/mL (≈ 24.2 µM) |
| COc1ccc(NC(=O)CS(=O)c2ccccc2Cl)cc1 (stereo not drawn) | > 48.6 µg/mL |
| Cc1cc(C(C)(C)C)ccc1NC(=O)CC(C)(C)CC(=O)O | > 45.8 µg/mL |
| O=C(OCC(=O)N1CCc2ccccc2C1)c1cccs1 | 36.8 µg/mL (≈ 122 µM) |
| CN1CCc2c(sc3nc(NCCO)n(-c4cccc(Cl)c4)c(=O)c23)C1 | 58.3 µg/mL (≈ 149 µM) |
| COc1ccc2c(c1)C(NC(C)=O)C(=O)N2CCc1ccccc1 (stereo not drawn) | 46.6 µg/mL (≈ 144 µM) |
| CCn1cc(C(=O)NCc2ccccc2)c2ccccc21 | 8 µg/mL (≈ 28.7 µM) |
| O=C(O)c1nc(NCc2ccccc2)ncc1Cl | > 39.6 µg/mL |
